From ChEMBL document CHEMBL5370591, “A Potent and Narrow-Spectrum Antibacterial against Clostridioides difficile Infection” (J Med Chem, 2023) come the findings set out here.

As usually defined, the MIC is the smallest concentration in the dilution series that meets the test's criterion for growth inhibition. A high value points to weaker potency.

This assay relates to Clostridioides difficile. The assay is described as follows: Antibacterial activity against Clostridium difficile ATCC 43255 measured after 48 hrs by two fold serial dilution method. The assay is classed as functional.

Values after ≈ are worked out from the molar mass of the structure shown.

For `c1cc2cc(-c3nc(-c4ccc(OC5CCCC5)cc4)no3)ccc2[nH]1`, the minimum inhibitory concentration (MIC) turned out to be 8 µg/mL (≈ 23.2 µM).
In the case of `CC(C)(C)Oc1ccc(-c2noc(-c3ccc(O)cc3)n2)cc1` it was greater than 128 µg/mL.
To `c1cc2cc(-c3nc(-c4ccc5occc5c4)no3)ccc2[nH]1` belongs greater than 128 µg/mL; to `Fc1ccc2oc3ccc(-c4noc(-c5ccc6[nH]ccc6c5)n4)cc3c2c1`, greater than 128 µg/mL; to `Oc1cccc(/C=C/c2nc(-c3ccc(OC4CCCC4)cc3)no2)c1`, greater than 128 µg/mL.
For the molecule `Oc1ccc(-c2nc(-c3ccc(OC4CCOC4)cc3)no2)cc1` (centres undefined), the minimal inhibitory concentration (MIC) is greater than 128 µg/mL.
In the case of `OCC#Cc1c[nH]nc1-c1nc(-c2ccc(Oc3ccc(C(F)(F)F)cc3)cc2)no1` it was greater than 128 µg/mL; in that of `Cl.O=[N+]([O-])c1c[nH]c(-c2nc(-c3ccc(OC4CCNCC4)cc3)no2)n1`, greater than 128 µg/mL.
In the case of `Oc1ccc(Cc2nc(-c3ccc(OC4CCCC4)cc3)no2)cc1` it was 16 µg/mL (≈ 47.6 µM); in that of `Oc1ccc(-c2nc(-c3ccc4oc5ccc(F)cc5c4c3)no2)cc1`, greater than 128 µg/mL.
In the case of `FC(F)(F)c1ccc(Oc2ccc(-c3noc(-c4n[nH]cc4Nc4n[nH]c5ccccc45)n3)cc2)cc1` it was greater than 128 µg/mL.
As to `O=C(Nc1c[nH]nc1-c1nc(-c2ccc(Oc3ccc(C(F)(F)F)cc3)cc2)no1)c1ccccc1`, the MIC was greater than 128 µg/mL.
In the case of `Cl.NCCCOc1ccc(-c2noc(-c3ccc(O)cc3)n2)cc1` it was 64 µg/mL.
To `Oc1ccc(-c2nc(-c3ccc(OC(F)(F)F)cc3)no2)cc1` belongs 64 µg/mL (≈ 199 µM).
To `Cl.NCCCCc1nc(-c2ccc(OC3CCCC3)cc2)no1` belongs 128 µg/mL; to `Oc1ccc(Nc2nc(-c3ccc(OC4CCCC4)cc3)no2)cc1`, 32 µg/mL (≈ 94.8 µM); to `Oc1ccc(-c2nc(-c3ccc(Oc4ccc(C(F)(F)F)cc4)nc3)no2)cc1`, greater than 128 µg/mL.
In turn, `Nc1cc(-c2noc(-c3ccc(O)cc3)n2)ccc1Oc1ccccc1` displayed an MIC greater than 128 µg/mL.
To `COc1cc(-c2nc(-c3ccc(Oc4ccc(C(F)(F)F)cc4)cc3)no2)cc(F)c1O` belongs 16 µg/mL (≈ 35.8 µM); to `N#Cc1ccc(Oc2ccc(-c3noc(-c4ccc(O)cc4)n3)cc2)cc1`, greater than 128 µg/mL.
To `Oc1ccc(-c2nc(-c3ccc(C(O)C(F)(F)F)cc3)no2)cc1` (centres undefined) belongs 32 µg/mL (≈ 95.2 µM); to `FC(F)(F)c1ccc(Oc2ccc(-c3noc(-c4cc[nH]n4)n3)cc2)cc1`, greater than 128 µg/mL; to `CCCCOc1ccc(-c2noc(-c3ccc(O)cc3)n2)cc1`, greater than 128 µg/mL.
`FC(F)(F)c1ccc(Oc2ccc(-c3noc(-c4cn[nH]c4)n3)cc2)cc1` yielded an MIC greater than 128 µg/mL.
To `Oc1ccc(-c2nc(-c3ccc4oc5ccc(C(F)(F)F)cc5c4c3)no2)cc1` belongs greater than 128 µg/mL.
To `O=[N+]([O-])c1ccc(-c2noc(-c3ccc4[nH]ccc4c3)n2)cc1` belongs greater than 128 µg/mL; to `CC(C)(C)OC(=O)N1CCC(Oc2ccc(-c3noc(-c4nc([N+](=O)[O-])c[nH]4)n3)cc2)CC1`, greater than 128 µg/mL; to `Nc1ccc(-c2nc(-c3ccc(Oc4ccc(C(F)(F)F)cc4)cc3)no2)cc1F`, greater than 128 µg/mL.
In the case of `FC(F)(F)c1ccc(Oc2ccc(-c3noc(-c4c[nH]cn4)n3)cc2)cc1` it was 8 µg/mL (≈ 21.5 µM).
With `CN1CCC(Oc2ccc(-c3noc(-c4nc([N+](=O)[O-])c[nH]4)n3)cc2)C1.Cl` (centres undefined), the MIC is greater than 128 µg/mL.
For the molecule `c1cc2cc(-c3nc(-c4ccc5c(c4)CCN5)no3)ccc2[nH]1`, the MIC was greater than 128 µg/mL.
To `Oc1ccc(-c2nc(-c3ccc(Oc4ccc(I)cc4)cc3)no2)cc1` belongs 16 µg/mL (≈ 35.1 µM); to `O=C(c1ccc(-c2noc(-c3ccc(O)cc3)n2)cc1)C(F)(F)F`, 8 µg/mL (≈ 23.9 µM); to `O=C(NNC(=O)c1ccc(OC2CCCC2)cc1)c1ccc(O)cc1`, greater than 128 µg/mL.
`O=[N+]([O-])c1ccc(-c2nc(-c3ccc(OC4CCCC4)cc3)no2)cc1` had a minimal inhibitory concentration (MIC) greater than 128 µg/mL.
In the case of `Oc1ccc(-c2nc(-c3ccc(Oc4ccc(C(F)(F)F)cc4)cc3)no2)cn1` it was greater than 128 µg/mL.
In the case of `FC(F)(F)c1ccc(Oc2ccc(-c3noc(-c4n[nH]cc4Br)n3)cc2)cc1`, the MIC was greater than 128 µg/mL.
To `FC(F)(F)c1ccc(Oc2ccc(-c3noc(-c4n[nH]cc4NC4CCCC4)n3)cc2)cc1` belongs greater than 128 µg/mL; to `FC(F)(F)c1ccc(Oc2ccc(-c3noc(-c4n[nH]cc4I)n3)cc2)cc1`, greater than 128 µg/mL.
In the case of `Oc1ccc(-c2nc(-c3ccc(OC4CC4)cc3)no2)cc1` it was greater than 128 µg/mL.
Regarding `Oc1ccc(-c2nc(-c3ccc(Oc4ccccc4CBr)cc3)no2)cc1`, 8 µg/mL (≈ 18.9 µM) was the least that counted as inhibitory (MIC).
To `COc1ccc2oc3ccc(-c4noc(-c5n[nH]cc5[N+](=O)[O-])n4)cc3c2c1` belongs 64 µg/mL (≈ 170 µM); to `CCCCNc1c[nH]nc1-c1nc(-c2ccc(Oc3ccc(C(F)(F)F)cc3)cc2)no1`, greater than 128 µg/mL.
`FC(F)(F)c1ccc(Oc2ccc(-c3noc(-c4n[nH]cc4Cl)n3)cc2)cc1` showed an MIC greater than 128 µg/mL.
In the case of `O=C1C[C@H](c2nc(-c3ccc(Oc4ccc(C(F)(F)F)cc4)cc3)no2)CN1` it was greater than 128 µg/mL; in that of `CN1CCN(c2ccc(-c3noc(-c4ccc(O)cc4)n3)cc2)CC1`, greater than 128 µg/mL; in that of `NC1CCN(c2ccc(-c3noc(-c4ccc(O)cc4)n3)cc2)CC1`, 64 µg/mL (≈ 190 µM).
Turning to `Oc1ccc(-c2nnc(-c3ccc(OC4CCCC4)cc3)o2)cc1`, the MIC was greater than 128 µg/mL.
In the case of `O=Cc1ccc(-c2noc(-c3ccc(O)cc3)n2)cc1` it was greater than 128 µg/mL.
In turn, `FC(F)(F)c1ccc(Oc2ccc(-c3noc(-c4ccncc4)n3)cc2)cc1` displayed an MIC greater than 128 µg/mL.
In turn, `Cn1c(-c2nc(-c3ccc(OC4CCCC4)cc3)no2)cnc1[N+](=O)[O-]` yielded an MIC of 32 µg/mL (≈ 90.1 µM).
Molecule `Cl.O=[N+]([O-])c1c[nH]c(-c2nc(-c3ccc(CN4CCCC4)cc3)no2)n1` had an MIC greater than 128 µg/mL.
In the case of `C[C@@H](N)c1nc(-c2ccc(OC3CCCC3)cc2)no1` it was greater than 128 µg/mL.
Molecule `Oc1ccc(-c2nc(N3CCN(c4cccc(Cl)c4)CC3)no2)cc1` showed an MIC greater than 128 µg/mL.
`Nc1cc(-c2nc(-c3ccc(Oc4ccc(C(F)(F)F)cc4)cc3)no2)cnc1O` showed an MIC greater than 128 µg/mL.
Molecule `O=[N+]([O-])c1c[nH]nc1-c1nc(-c2ccc(Oc3ccccc3)cc2)no1` came in with an MIC greater than 128 µg/mL.
In the case of `Oc1cc(-c2nc(-c3ccc(Oc4ccc(C(F)(F)F)cc4)cc3)no2)cc(F)c1O` it was greater than 128 µg/mL.
Molecule `O=[N+]([O-])c1ccc(-c2nc(-c3ccc(Oc4ccc(C(F)(F)F)cc4)cc3)no2)cc1` came in with an MIC greater than 128 µg/mL.
Regarding `Oc1ccc(-c2noc(-c3ccc(O)cc3)n2)cc1`, 128 µg/mL (≈ 503 µM) was the least that counted as inhibitory (MIC).
To `c1nc2cc(-c3nc(-c4ccc(OC5CCCC5)cc4)no3)ccc2[nH]1` belongs 128 µg/mL (≈ 370 µM); to `Nc1ccc(-c2nc(-c3ccc(OC4CCCC4)cc3)no2)cc1`, greater than 128 µg/mL; to `Oc1ccc(-c2nc(-c3ccc(OC4CCC4)cc3)no2)cc1`, greater than 128 µg/mL.
In the case of `Oc1ccc(-c2nc(-c3ccc(OC4CCNCC4)cc3)no2)cc1`, the MIC came out at 64 µg/mL (≈ 190 µM).
To `Cl.Oc1ccc(-c2nc(-c3ccc(OC4CCNC4)cc3)no2)cc1` (centres undefined) belongs 64 µg/mL; to `FC(F)(F)c1ccc(Oc2ccc(-c3noc(-c4n[nH]cc4Nc4c[nH]c5ncccc45)n3)cc2)cc1`, greater than 128 µg/mL.
To `Nc1c[nH]nc1-c1nc(-c2ccc(Oc3ccc(C(F)(F)F)cc3)cc2)no1` belongs greater than 128 µg/mL; to `O=C(O)c1ccc(-c2nc(-c3ccc(OC4CCCC4)cc3)no2)cc1`, greater than 128 µg/mL; to `c1cc2cc(-c3nc(-c4ccc5c(c4)OCO5)no3)ccc2[nH]1`, greater than 128 µg/mL.
In the case of `FC(F)(F)c1ccc(Oc2ccc(-c3noc(-c4nc[nH]n4)n3)cc2)cc1` it was greater than 128 µg/mL; in that of `Clc1cccc(N2CCN(c3noc(-c4ccc5[nH]ccc5c4)n3)CC2)c1`, greater than 128 µg/mL.
`c1cc2cc(-c3nc(-c4ccc5c(c4)CCO5)no3)ccc2[nH]1` registered a minimal inhibitory concentration (MIC) greater than 128 µg/mL.
`Cl.NCc1ccc(-c2nc(-c3ccc(OC4CCCC4)cc3)no2)cc1` registered an MIC of 8 µg/mL.
In the case of `C[C@@H](NC(=O)OC(C)(C)C)C(=O)N[C@H](C)c1nc(-c2ccc(OC3CCCC3)cc2)no1` it was greater than 128 µg/mL.
Consider `Oc1ccc(-n2cc(-c3ccc(Oc4ccccc4)cc3)nn2)cc1`, for which the MIC is greater than 128 µg/mL.
In the case of `O=[N+]([O-])c1cc(Oc2ccc(C(F)(F)F)cc2)cnc1-c1noc(-c2ccc(O)cc2)n1` it was greater than 128 µg/mL; in that of `CC(C)(C)OC(=O)N1CCC(Nc2c[nH]nc2-c2nc(-c3ccc(Oc4ccc(C(F)(F)F)cc4)cc3)no2)CC1`, greater than 128 µg/mL.
As for `COc1ccc(-c2noc(-c3ccc(O)cc3)n2)cc1OC`, the MIC is greater than 128 µg/mL.
In the case of `O=[N+]([O-])c1c[nH]c(Nc2c[nH]nc2-c2nc(-c3ccc(Oc4ccc(C(F)(F)F)cc4)cc3)no2)c1` it was 8 µg/mL (≈ 16.1 µM).
In turn, `COc1ccc(-c2noc(-c3ccc(O)cc3)n2)cc1` came in with an MIC greater than 128 µg/mL.
Molecule `FC(F)(F)c1ccc(Oc2ccc(-c3noc(-c4n[nH]cc4Nc4cc5ccccc5[nH]4)n3)cc2)cc1` registered an MIC greater than 128 µg/mL.
To `Cl.Nc1nc(-c2ccc(OC3CCCC3)cc2)no1` belongs greater than 128 µg/mL; to `FC(F)(F)c1ccc(Oc2ccc(-c3noc(-c4ccc(Br)cc4)n3)cc2)cc1`, greater than 128 µg/mL; to `Clc1ccc(N2CCN(c3noc(-c4ccc5[nH]ccc5c4)n3)CC2)cc1Cl`, greater than 128 µg/mL.
Molecule `Oc1ccc(-c2nc(-c3ccc4[nH]c5ccccc5c4c3)no2)cc1` registered an MIC greater than 128 µg/mL.
To `O=[N+]([O-])c1cn(CCO)c(-c2nc(-c3ccc(OC4CCCC4)cc3)no2)n1` belongs greater than 128 µg/mL; to `Fc1ccccc1-c1noc(-c2ccc3[nH]ccc3c2)n1`, greater than 128 µg/mL.
`Oc1ccc(-c2nc(N3CCN(c4ccccc4)CC3)no2)cc1` had an MIC greater than 128 µg/mL.
Consider `c1cc(-c2noc(-c3ccc4c(c3)CCN4)n2)ccc1OC1CCCC1`, for which the minimal inhibitory concentration (MIC) was greater than 128 µg/mL.
To `CCOc1ccc(-c2noc(-c3ccc(O)cc3)n2)cc1` belongs greater than 128 µg/mL; to `Clc1nc(-c2ccc(OC3CCCC3)cc2)no1`, greater than 128 µg/mL; to `CS(=O)(=O)Nc1ccc(-c2nc(-c3ccc(OC4CCCC4)cc3)no2)cc1`, greater than 128 µg/mL.
As for `Oc1ccc(-c2nc(-c3ccc(Oc4ccccc4)c(Br)c3)no2)cc1`, the MIC is greater than 128 µg/mL.
To `Oc1ccc(-c2nc(-c3ccc(N4CCOCC4)cc3)no2)cc1` belongs greater than 128 µg/mL; to `C[C@@H](NC(=O)OC(C)(C)C)c1nc(-c2ccc(OC3CCCC3)cc2)no1`, greater than 128 µg/mL.
